Data taken from patent publication US20250090699A1, “FAP TARGETING CYCLIC PEPTIDES AND CONJUGATES THEREOF” (Novartis AG, priority 2023, published 2025).
Structures can show the parent of a compound that is named as a salt. Starred links: 1 amine or outer side, 2 acyl side, 3 side chain; linkers in the order of their positions; H or OH if unused. Non-standard residues stand in square brackets, D forms with d. Residues, ends and D or L forms follow the SMILES beside them. Primed or numbered codes have the meaning given here. *: point of attachment. F(4OEtNHDOTA-Lu) = lutetium complex of (S)-2,2',2''-(10-(2-((2-(4-(2-amino-2-carboxyethyl)phenoxy)ethyl)amino)-2-oxoethyl)-1,4,7,10-tetraazacyclododecane-1,4,7-triyl)triacetic acid (Phe with 4-O-ethylamino-DOTA-Lu), O=C([O-])CN1CCN(CC(=O)[O-])CCN(CC(=O)NCCOc2ccc(C[C@H](N[*:1])C(=O)[*:2])cc2)CCN(CC(=O)[O-])CC1.[Lu+3]; COpipzaa″ = 4-(carboxymethyl)piperazine-1-carbonyl on Lys N6, O=C(O)CN1CCN(C(=O)*)CC1; F(4OEtNHRDOTAGA-Ga) = Phe with 4-O-ethyl-NH-DOTAGA, Ga complex; NMeF = CN[C@@H](Cc1ccccc1)C(=O)O; Aoc(2) = CCCCCC[C@H](N)C(=O)O; Ahp(2) = CCCCC[C@H](N)C(=O)O; dPip = O=C(O)[C@H]1CCCCN1; hSer = N[C@@H](CCO)C(=O)O

Columns and labels:
mouse FAP [1] = molecular target: T1, mouse FAP (Mus musculus, UniProt P97321); test: Surface plasmon resonance (SPR) for peptide affinity, mouse FAP; format: binding
T1 construct: biotinylated His, Avi tag, mouse FAP (26-761, FAP-M82Q5); His; Avi tag (biotinylated); purchased AcroBiosystems FAP-M82Q5
T1 sequence (P97321 26-761): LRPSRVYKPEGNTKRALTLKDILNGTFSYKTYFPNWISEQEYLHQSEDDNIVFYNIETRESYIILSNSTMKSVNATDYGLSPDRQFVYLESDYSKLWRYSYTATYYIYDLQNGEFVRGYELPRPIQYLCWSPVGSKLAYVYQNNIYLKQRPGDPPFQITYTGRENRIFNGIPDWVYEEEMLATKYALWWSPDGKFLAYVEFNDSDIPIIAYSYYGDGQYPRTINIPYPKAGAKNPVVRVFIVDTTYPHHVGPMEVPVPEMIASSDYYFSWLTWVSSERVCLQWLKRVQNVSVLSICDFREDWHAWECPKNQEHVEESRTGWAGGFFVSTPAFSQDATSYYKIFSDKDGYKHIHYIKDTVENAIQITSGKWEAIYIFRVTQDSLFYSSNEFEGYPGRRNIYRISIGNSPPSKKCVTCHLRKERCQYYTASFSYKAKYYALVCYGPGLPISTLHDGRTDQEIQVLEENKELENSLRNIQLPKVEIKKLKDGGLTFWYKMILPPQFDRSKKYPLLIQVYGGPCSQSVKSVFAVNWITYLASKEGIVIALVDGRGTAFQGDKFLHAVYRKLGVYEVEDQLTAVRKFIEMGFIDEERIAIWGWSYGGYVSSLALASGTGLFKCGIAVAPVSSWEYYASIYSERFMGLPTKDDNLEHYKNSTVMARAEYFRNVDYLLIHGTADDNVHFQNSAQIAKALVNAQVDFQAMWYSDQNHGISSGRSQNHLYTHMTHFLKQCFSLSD
Experimental: Peptide affinities (KD) were determined by SPR using a Biacore™ 8K device (Cytiva) towards the following proteins: biotinylated His, Avi tag, human FAP (26-760, FAP-H82Q6), biotinylated His, Avi tag, mouse FAP (26-761, FAP-M82Q5), His tag, human DPP4 (34-766, DP4-H82E3), all purchased from AcroBiosystems and His tag, mouse DPP4 (29-760, 954-SE) from R&D Systems. The FAP proteins and their homologous were diluted to a concentration of 2 μg/mL into acetate buffer pH 5.5, then immobilized onto a CM5 sensorchip (Cytiva, BR-1005-30) to reach a response around 2000 R U. The running buffer HBS-EP+pH 7.6 (20× from Teknova CAT. No: H8022) contained 10 mM HEPES pH 7.6, 150 mM NaCl, 3 mM EDTA, 0.05% Tween20 and 2% DMSO. Experiments were carried out at 25° C. using a flow rate of 30 μL/min. Compounds were tested in single cycle kinetic mode at 8 different concentrations. Curve fitting was performed using the Biacore™ 8K evaluation software. The sensorgrams were fitted by applying a 1:1 binding model to calculate kinetic rate constants and equilibrium dissociation constants (KD).
For this assay, the setup had the same conditions (flow rate, running buffer, peptide dilution) as described above for the CM5 method. The oligo CAP reagent obtained in the CAPture Kit (Ref. 28920234) was 1/5 diluted into running buffer and used with a contact time of 300 s at a flow rate of 2 μL/min. The human and mouse FAP constructs described above were used (from AcroBiosystems or produced in house). The FAP proteins were diluted to a concentration of 2 μg/mL into acetate pH 5.5, 0.05% Tween20 and used with a contact time of 600 s at a flow rate of 10 μL/min. The peptides were tested with an association time of 280 s followed by a dissociation time of 3000 s at a flow rate of 30 μL/min. The regeneration was done using the regeneration solution (8 M guanidine-HCl, 1 M NaOH) as obtained with a contact time of 270 s at a flow rate of 10 μL/min. […] The compounds marked with an asterisk were tested against human and mouse DDP4.

mouse FAP [2] = molecular target: T1, mouse FAP; test: Enzymatic FAP competition assay (Z-Gly-Pro-AMC fluorescence), mouse FAP; format: biochemical; settings: read-out: m. FAP, Enz., IC50
Experimental: (§1) Peptide potencies (IC50) to inhibit the FAP enzymatic activity were determined using a fluorescence-based assay towards the biotinylated His, Avi tag, human FAP (26-760, FAP-H82Q6) and the biotinylated His, Avi tag, mouse FAP (26-761, FAP-M82Q5). Standard assay conditions consisted of 20 μL total volume in white 384-well plates (Greiner, Ref. 784075), in 50 mM phosphate buffer pH 7.5 containing 150 mM NaCl, 0.05% Tween20 and 1% final DMSO. Tested peptides at 14 different concentrations up to 1 μM were added to 0.01 nM human or mouse FAP. The peptides were incubated for 24 hours together with the protein before adding the substrate 50 μM Z-Gly-Pro-AMC (I-1145 from Bachem). Samples were then incubated at 22-24° C. for 4 h before reading the fluorescence at excitation wavelength of 380 nm and emission wavelength of 460 nm using the Tecan Infinite® M1000 PRO. The high control (100% activity) was not containing any peptide, and an internal potent peptide was added at 10 μM concentration for the low control (100% inhibition). IC50 values were calculated by curve fitting using an in-house developed software (Novartis Helios software application) using the method described by Fomenko et al., 2006 (regression algorithms for nonlinear dose-response curve fitting). Following normalization of activity values for the wells to % inhibition (% inhibition=[(high control-sample)/(high control-low control)]x 100). IC50 fitting was carried out from the duplicated points.

human FAP = molecular target: T2, human FAP (Homo sapiens, UniProt Q12884); test: Enzymatic FAP competition assay (Z-Gly-Pro-AMC fluorescence), human FAP; format: biochemical; settings: read-out: h. FAP, Enz., IC50
T2 construct: the biotinylated His, Avi tag, human FAP (26-760, FAP-H82Q6); His; Avi tag (biotinylated); purchased AcroBiosystems FAP-H82Q6
T2 sequence (Q12884 26-760): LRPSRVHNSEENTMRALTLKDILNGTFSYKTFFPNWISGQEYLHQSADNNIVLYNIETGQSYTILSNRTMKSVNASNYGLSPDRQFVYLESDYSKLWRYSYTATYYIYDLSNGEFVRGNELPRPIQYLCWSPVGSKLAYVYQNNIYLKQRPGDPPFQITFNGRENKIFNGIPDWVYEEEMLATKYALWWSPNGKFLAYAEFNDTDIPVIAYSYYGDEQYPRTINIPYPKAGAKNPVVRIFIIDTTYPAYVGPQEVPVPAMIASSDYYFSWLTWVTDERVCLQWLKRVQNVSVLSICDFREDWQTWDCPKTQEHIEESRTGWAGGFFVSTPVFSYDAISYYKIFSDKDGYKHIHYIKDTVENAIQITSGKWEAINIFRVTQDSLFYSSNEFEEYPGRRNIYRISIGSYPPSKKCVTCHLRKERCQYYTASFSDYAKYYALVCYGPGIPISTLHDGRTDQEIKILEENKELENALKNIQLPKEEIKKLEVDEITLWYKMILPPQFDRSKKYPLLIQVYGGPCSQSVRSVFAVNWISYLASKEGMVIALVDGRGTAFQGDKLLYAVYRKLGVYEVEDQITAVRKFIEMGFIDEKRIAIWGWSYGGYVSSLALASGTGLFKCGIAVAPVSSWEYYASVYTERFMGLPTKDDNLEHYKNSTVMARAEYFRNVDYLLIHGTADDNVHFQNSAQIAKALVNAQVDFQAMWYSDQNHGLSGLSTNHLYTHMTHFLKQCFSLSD
Experimental: as §1

| Compound | Kd (mouse FAP [1]) [nM] | IC50 (mouse FAP [2]) [nM] | IC50 (human FAP) [nM] |
| --- | --- | --- | --- |
| CCCCC[C@@H]1NC(=O)[C@H](Cc2ccc(O)cc2)NC(=O)[C@H](Cc2ccccc2)N(C)C(=O)CNC(=O)CNC(=O)[C@H]2CCCN2C(=O)[C@H](CCO)NC(=O)[C@H](Cc2ccc(O)cc2)NC(=O)CNC(=O)[C@H](Cc2c[nH]c3ccccc23)NC1=O [Example A57, Gly-Gly-NMePhe-Tyr-Ahp-Trp-Gly-Tyr-hSer-D-Pro] (cyclo([Ahp(2)]WGY[hSer][dP]GG[NMeF]Y)) | 19 | 25 | 6.6 |
| CCCCCC[C@@H]1NC(=O)[C@H](Cc2ccc(O)cc2)NC(=O)[C@H](Cc2ccccc2)N(C)C(=O)CNC(=O)[C@H](CCCCN)NC(=O)[C@H]2CCCN2C(=O)[C@H](CC(=O)O)NC(=O)[C@H](Cc2ccc(O)cc2)NC(=O)CNC(=O)[C@H](Cc2c[nH]c3ccccc23)NC1=O [Example A31, Lys-Gly-NMePhe-Tyr-Aoc-Trp-Gly-Tyr-Asp-D-Pro, TFA salt] (cyclo([Aoc(2)]WGYD[dP]KG[NMeF]Y)) | 0.106 | 0.158 | 0.04 |
| CCCCC[C@@H]1NC(=O)[C@H](Cc2ccc(O)cc2)NC(=O)[C@H](Cc2ccccc2)N(C)C(=O)CNC(=O)CNC(=O)[C@H]2CCCCN2C(=O)[C@H](CC(=O)O)NC(=O)[C@H](Cc2ccc(O)cc2)NC(=O)CNC(=O)[C@H](Cc2c[nH]c3ccccc23)NC1=O [Example A66, Gly-Gly-NMePhe-Tyr-Ahp-Trp-Gly-Tyr-Asp-Pi(2R-COOH)] (cyclo([Ahp(2)]WGYD[dPip]GG[NMeF]Y)) | 0.46 | 1.2 | 0.27 |

Other lines, results leading:

| Kd (mouse FAP [1]) [nM] | IC50 (mouse FAP [2]) [nM] | IC50 (human FAP) [nM] | Compound |
| --- | --- | --- | --- |
| 0.037 | 0.048 | 0.012 | Gly-Gly-NMePhe-F(4OEtNHRDOTAGA-Ga)-Ahp-Trp-Gly-Tyr-Asp-D-Pro (cyclo(GG[NMeF][F(4OEtNHRDOTAGA-Ga)][Ahp(2)]WGYD[dP]); also: Ga complex of DOTAGA) [Example C38] |
| 0.34 | 0.35 | 0.098 | K(COpipzaa)-Gly-NMePhe-F(4OEtNHDOTA-Lu)-Ahp-Trp-Gly-Tyr-Asp-D-Pro (cyclo(K(COpipzaa″)G[NMeF][F(4OEtNHDOTA-Lu)][Ahp(2)]WGYD[dP]); also: Lu complex) [Example C25] |
